# Reference: patent US8618138B2, “Indole amide derivatives and related compounds for use in the treatment of neurodegenerative diseases” (Katholieke Universiteit Leuven, K.U. Leuven R&D, priority 2009, dated 2013)
# Test system: M17-TAU P301L cells
# Assay: TAU cytotoxicity assay: LDH leakage of retinoic acid incubated M17-TAU P301L cells
# Assay type: cell-based, human
# Conditions: Homo sapiens, 168 h, reduction of LDH activity of retinoic acid incubated M17-TAU P301L cells, 7 days
# Description: A TAU expression plasmid was constructed by sub-cloning the cDNA of human TAU-P301 L (encoding for TAU with proline 301 substituted by a leucine residue) into mammalian expression vector pcDNA3.1 resulting in plasmid pcDNA3.1-TAU P301L. Plasmids pcDNA3.1 and pcDNA3.1-TAU P301L were transfected to human neuroblastoma cells ([…]; ATCC No. CRL-2267) and independent clonal lines with the plasmids stably integrated into the genome were selected. […] Expression of the TAU P301L genes in the cell lines was confirmed by Western analysis.
# In degenerated or dead cells lactate dehydrogenase (LDH) is leaked out of the cells into the extracellular environment due to a loss of plasma-membrane integrity. This principle was used to determine cytotoxicity by quantifying the level of leaked LDH into the growth medium.
# The detailed method for determining TAU cytotoxicity was as follows: From appropriate precultures of M17-3.1 and M17-TAU(P301L) cells were seeded at 2500 cells/cm2 in Optimem Reduced Serum without phenol red (Gibco, Cat. 31985-047) supplemented with 1% fetal calf serum, 1 mM sodium pyruvate, 1× non-essential amino acids, 500 μg/ml G418 0.5× antibiotic/antimycotic. After 3 h of incubation at 37° C./5% CO2 1 volume of Optimem Reduced Serum (same as described above; except without fetal calf serum) supplemented with 2.5 μM retinoic acid (RA) was added. The cells were further incubated for 7 days. Subsequently, LDH activity was determined using Promega Cytotox 96 Non-Radioactive cytotoxicity assay, (Cat. G1780) according the supplier's instructions.
# The M17-TAU P301L cell line made it possible to assess the ability of novel compounds to counteract TAU cytotoxicity. […] These measurements were used to calculate EC50 values of table 2.
# Exemplary compounds of the present invention are shown in table 2, with their chemical name and their EC50 value (expressed in nM) as determined from example 196 in the Tau-induced toxicity experiment.
row,SMILES,EC50 [nM]
1,"Cc1nc(NCCc2ccccc2)sc1C(=O)NCCc1c[nH]c2ccccc12 [Example D39, N-(2-(1H-indol-3-yl)ethyl)-4-methyl-2-(phenethylamino)thiazole-5-carboxamide]",87
2,"N#Cc1ccc(Cc2cc(C(=O)NCCc3c[nH]c4ccc(Cl)cc34)no2)cc1 [Example D4, N-(2-(5-chloro-1H-indol-3-yl)ethyl)-5-(4-cyanobenzyl)isoxazole-3-carboxamide]",9
3,"O=C(NCCc1c[nH]c2ccc(Cl)cc12)C1CCN(c2ccc(C(F)(F)F)c(F)c2)C1=O (stereo not drawn) [Example D150, N-(2-(5-chloro-1H-indol-3-yl)ethyl)-1-(3-fluoro-4-(trifluoromethyl)phenyl)-2-oxopyrrolidine-3-carboxamide]",23300
4,"O=C(NCCc1c[nH]c2ccc(Cl)cc12)c1cn(Cc2ccccc2)nn1 [Example D54, 1-benzyl-N-(2-(5-chloro-1H-indol-3-yl)ethyl)-1H-1,2,3-triazole-4-carboxamide]",173
5,"Cn1ccc(N2CCC(C(=O)NCCc3c[nH]c4ccc(Cl)cc34)C2=O)n1 (stereo not drawn) [Example D160, N-(2-(5-chloro-1H-indol-3-yl)ethyl)-1-(1-methyl-1H-pyrazol-3-yl)-2-oxopyrrolidine-3-carboxamide]",1040
6,"COc1cccc(Cc2nc(C(=O)NCCc3c[nH]c4ccc(Cl)cc34)no2)c1 [Example D177, N-(2-(5-chloro-1H-indol-3-yl)ethyl)-5-(3-methoxybenzyl)-1,2,4-oxadiazole-3-carboxamide]",29
7,"N#Cc1ccc2[nH]cc(CCNC(=O)c3cc(Cc4cc(F)ccc4F)on3)c2c1 [Example D137, N-(2-(5-cyano-1H-indol-3-yl)ethyl)-5-(2,5-difluorobenzyl)isoxazole-3-carboxamide]",32
8,"O=C(NCCc1c[nH]c2ncc(Cl)cc12)c1cc(C(=O)c2cc(F)ccc2F)on1 [Example D127, N-(2-(5-chloro-1H-pyrrolo[2,3-b]pyridin-3-yl)ethyl)-5-(2,5-difluorobenzoyl)isoxazole-3-carboxamide]",436
9,"O=C(NCCc1c[nH]c2ccccc12)c1cc(Cc2cccc(F)c2)on1 [Example D31, N-(2-(1H-indol-3-yl)ethyl)-5-(3-fluorobenzyl)isoxazole-3-carboxamide]",44
10,"O=C(NCCc1c[nH]c2ccc(Cl)cc12)c1cn(C2CCCCC2)nn1 [Example D44, N-(2-(5-chloro-1H-indol-3-yl)ethyl)-1-cyclohexyl-1H-1,2,3-triazole-4-carboxamide]",108
11,"Cc1ccccc1N1CCC(C(=O)NCCc2c[nH]c3ccc(Cl)cc23)C1=O (stereo not drawn) [Example D158, N-(2-(5-chloro-1H-indol-3-yl)ethyl)-2-oxo-1-o-tolylpyrrolidine-3-carboxamide]",1030
12,"COc1ccc(N2CCC(C(=O)NCCc3c[nH]c4ccc(Cl)cc34)C2=O)cc1F (stereo not drawn) [Example D147, N-(2-(5-chloro-1H-indol-3-yl)ethyl)-1-(3-fluoro-4-methoxyphenyl)-2-oxopyrrolidine-3-carboxamide]",379
13,"O=C(NCCc1c[nH]c2ccc(Cl)cc12)c1cc(Cc2ccco2)on1 [Example D17, N-(2-(5-chloro-1H-indol-3-yl)ethyl)-5-(furan-2-ylmethyl)isoxazole-3-carboxamide]",22
14,"O=C(NCCc1c[nH]c2ccc(Cl)cc12)c1cc(C(O)c2ccccc2)on1 (stereo not drawn) [Example D195, N-(2-(5-chloro-1H-indol-3-yl)ethyl)-5-(hydroxy(phenyl)methyl)isoxazole-3-carboxamide]",101
15,"O=C(NCCc1c[nH]c2ccc(Cl)cc12)C1CCN(c2cccc(-n3cccc3)c2)C1=O (stereo not drawn) [Example D155, 1-(3-(1H-pyrrol-1-yl)phenyl)-N-(2-(5-chloro-1H-indol-3-yl)ethyl)-2-oxopyrrolidine-3-carboxamide]",1370
16,"O=C(NCCc1c[nH]c2ccc(C(F)(F)F)cc12)c1cc(Cc2cc(F)ccc2F)on1 [Example D135, 5-(2,5-difluorobenzyl)-N-(2-(5-(trifluoromethyl)-1H-indol-3-yl)ethyl)isoxazole-3-carboxamide]",144
17,"CCNCc1cc(C(=O)NCCc2c[nH]c3ccc(Cl)cc23)no1 [Example D66, N-(2-(5-chloro-1H-indol-3-yl)ethyl)-5-((ethylamino)methyl)isoxazole-3-carboxamide]",327
18,"Cc1nc(-c2cnccn2)sc1C(=O)NCCc1c[nH]c2ccc(Cl)cc12 [Example D73, N-(2-(5-chloro-1H-indol-3-yl)ethyl)-4-methyl-2-(pyrazin-2-yl)thiazole-5-carboxamide]",515

row,SMILES,EC50 [nM]
1,"Cc1ccc(-c2nc(C)c(C(=O)NCCc3c[nH]c4ccc(Cl)cc34)s2)cc1 [Example D45, N-(2-(5-chloro-1H-indol-3-yl)ethyl)-4-methyl-2-p-tolylthiazole-5-carboxamide]",113
2,"O=C(NCCc1c[nH]c2ccc(Cl)cc12)c1nnc(Cc2ccccc2)o1 [Example D60, 5-benzyl-N-(2-(5-chloro-1H-indol-3-yl)ethyl)-1,3,4-oxadiazole-2-carboxamide]",213
3,"O=C(NCCc1c[nH]c2ccc(Cl)cc12)C1=N[C@H](C2CCCCC2)CO1 [Example D58, (R)-N-(2-(5-chloro-1H-indol-3-yl)ethyl)-4-cyclohexyl-4,5-dihydrooxazole-2-carboxamide]",202
4,"Cc1ccc(N2CCC(C(=O)NCCc3c[nH]c4ccc(Cl)cc34)C2=O)cc1C (stereo not drawn) [Example D143, N-(2-(5-chloro-1H-indol-3-yl)ethyl)-1-(3,4-dimethylphenyl)-2-oxopyrrolidine-3-carboxamide]",1020
5,"Cn1nccc1C(=O)NCCc1c[nH]c2ccc(Cl)cc12 [Example D119, N-(2-(5-chloro-1H-indol-3-yl)ethyl)-1-methyl-1H-pyrazole-5-carboxamide]",1030
6,"O=C(NCCc1c[nH]c2ccc(Cl)cc12)c1noc(Cc2ccccc2)n1 [Example D168, 5-benzyl-N-(2-(5-chloro-1H-indol-3-yl)ethyl)-1,2,4-oxadiazole-3-carboxamide]",77
7,"CC(=O)c1ccc(N2CCC(C(=O)NCCc3c[nH]c4ccc(Cl)cc34)C2=O)cc1 (stereo not drawn) [Example D134, 1-(4-acetylphenyl)-N-(2-(5-chloro-1H-indol-3-yl)ethyl)-2-oxopyrrolidine-3-carboxamide]",86
8,"O=C(NCCc1c[nH]c2ccc(Cl)cc12)c1cc(C2CC2)on1 [Example D6, N-(2-(5-chloro-1H-indol-3-yl)ethyl)-5-cyclopropylisoxazole-3-carboxamide]",13
9,"O=C(NCCc1c[nH]c2ccc(Cl)cc12)C1CCN(c2ccc(F)cc2)C1=O (stereo not drawn) [Example D78, N-(2-(5-chloro-1H-indol-3-yl)ethyl)-1-(4-fluorophenyl)-2-oxopyrrolidine-3-carboxamide]",691
10,"O=C(NCCc1c[nH]c2ccc(Cl)cc12)c1cc(-c2ccc(Cl)cc2)on1 [Example D56, N-(2-(5-chloro-1H-indol-3-yl)ethyl)-5-(4-chlorophenyl)isoxazole-3-carboxamide]",190
11,"O=C(NCCc1c[nH]c2ccc(Cl)cc12)c1noc(Cc2ccsc2)n1 [Example D193, N-(2-(5-chloro-1H-indol-3-yl)ethyl)-5-(thiophen-3-ylmethyl)-1,2,4-oxadiazole-3-carboxamide]",49
12,"CCc1cccc(N2CCC(C(=O)NCCc3c[nH]c4ccc(Cl)cc34)C2=O)c1 (stereo not drawn) [Example D82, N-(2-(5-chloro-1H-indol-3-yl)ethyl)-1-(3-ethylphenyl)-2-oxopyrrolidine-3-carboxamide]",939
13,"Cc1cc2c(CCNC(=O)c3cc(Cc4cc(F)ccc4F)on3)c[nH]c2cc1Cl [Example D136, N-(2-(6-chloro-5-methyl-1H-indol-3-yl)ethyl)-5-(2,5-difluorobenzyl)isoxazole-3-carboxamide]",741
14,"CCc1ccccc1N1CCC(C(=O)NCCc2c[nH]c3ccc(Cl)cc23)C1=O (stereo not drawn) [Example D157, N-(2-(5-chloro-1H-indol-3-yl)ethyl)-1-(2-ethylphenyl)-2-oxopyrrolidine-3-carboxamide]",1210
15,"O=C(NCCc1c[nH]c2ccc(Cl)cc12)c1nnc(C2CCCCC2)o1 [Example D77, N-(2-(5-chloro-1H-indol-3-yl)ethyl)-5-cyclohexyl-1,3,4-oxadiazole-2-carboxamide]",595
16,"COc1ccc(N2CCC(C(=O)NCCc3c[nH]c4ccc(Cl)cc34)C2=O)cc1 (stereo not drawn) [Example D70, N-(2-(5-chloro-1H-indol-3-yl)ethyl)-1-(4-methoxyphenyl)-2-oxopyrrolidine-3-carboxamide]",408
17,"O=C(NCCc1c[nH]c2ccc(Cl)cc12)c1noc(Cc2ccc(OC(F)(F)F)cc2)n1 [Example D185, N-(2-(5-chloro-1H-indol-3-yl)ethyl)-5-(4-(trifluoromethoxy)benzyl)-1,2,4-oxadiazole-3-carboxamide]",42
18,"Cc1cccc(Cc2cc(C(=O)NCCc3c[nH]c4ccc(Cl)cc34)no2)c1 [Example D20, N-(2-(5-chloro-1H-indol-3-yl)ethyl)-5-(3-methylbenzyl)isoxazole-3-carboxamide]",23
